Laboratory results as given in US20100093064A1, “Metagenomic Functional Selection” (PRESIDENT AND FELLOWS OF HARVARD COLLEGE, priority 2008, published 2010).

Key:
E. coli [1] = assay: Selective inhibitory concentration of lignocellulosic compounds in LB-agar; format: cell-based, Escherichia coli; conditions: 48 hours of growth at 37° C., lowest concentration tested which prevented colony formation
Experimental: The inhibitory concentrations of 14 lignocellulosic compounds in LB-agar (Table 2) were determined for two versions of the E. coli strain used to create the mgDNA libraries—a strain with a control pCC1FOS fosmid insert containing E. coli genomic DNA, and an untransformed strain. […] A range of concentrations for each lignocellulosic compound were tested, based on inhibitory concentrations for E. coli previously reported (1-3).

E. coli [2] = assay: Kinetic growth / biomass yield analysis in liquid LB-chlor with inhibitor; format: cell-based, Escherichia coli; conditions: for Improvement in biomass yield due to selected metagenomic insert: vs E. coli control, at the inhibitor concentration giving 90% reduction of wild type biomass yield, mgFurAc/2-furoic acid, mgSyrAld/syringaldehyde, mgMetCat/4-methylcatechol; for Inhibitor concentration resulting in 90% reduction in growth yield: wild-type/control E. coli, 24 hours of growth at 37° C.
Experimental: […] DNA library clones conferring tolerance to each of three inhibitors were chosen for further analysis of encoded functional parts from the selected inhibitor plates. For 4-methycatechol, 5 tolerant clones each were chosen from selected mgDNA libraries 1, 3, 4, and 5 (FIG. 2A). For 2-furoic acid, 6-7 tolerant clones each were chosen from selected mgDNA libraries 1, 3 and 4 (FIG. 2A). For syringaldehyde, 10 tolerant clones each were chosen from selected mgDNA libraries 4 and 5 (FIG. 2A). Each colony was grown to saturation (16-18 hours) at 37° C. with shaking in liquid LB medium containing 12.5 μg/mL-chloramphenicol (hereon referred to as LB-chlor). Saturated cultures were diluted 1:40 in fresh LB-chlor and grown to mid-log phase (1-2 hours) at 37° C. with shaking. Log-phase cultures were inoculated (1:40) into LB-chlor containing one of three concentrations of the relevant inhibitor (4-methylcatechol: 0.2, 0.6 and 1 g/L; 2-furoic acid: 0.8, 7.9, 15 g/L; syringaldehyde: 1.55, 1.775 and 2 g/L), with concentrations chosen to sparsely span the range of previously reported inhibitory concentrations of these compounds (J. Zaldivar, L. O. Ingram, Biotechnol Bioeng 66, 203 (1999); J. Zaldivar, A. Martinez, L. O. Ingram, Biotechnol Bioeng 65, 24 (Oct. 5, 1999); J. Zaldivar, A. Martinez, L. O. Ingram, Biotechnol Bioeng 68, 524 (Jun. 5, 2000)). Biomass yield after 24 hours of growth at 37° C. with shaking was determined by end-point turbidity measurements at 600 nm using a Versamax microplate reader (Molecular Devices).
Three mgDNA clones per inhibitor with the highest biomass differential when compared to the E. coli control were chosen for kinetic growth analysis. Growth kinetics were measured at 11 concentrations per inhibitor, evenly spanning the following concentration ranges: 0-1 g/L 4-methylcatechol, 0-1.5 g/L 2-furoic acid, and 0-3 g/L syringaldehyde. Kinetic measurements were done in triplicate for each mgDNA clone and E. coli control by 600 nm measurements every 5 minutes over 24 hours at 37° C. with shaking in a Versamax microplate reader.
To determine whether the observed tolerance in the selected clones was a result of functional parts encoded by mgDNA, fosmids from the 3 kinetically characterized mgDNA clones per inhibitor were extracted using the FosmidMAX DNA Purification Kit (catalog #FMAX046, Epicentre Biotechnologies). Purified fosmids were then retransformed into an electro-competent version of the same control E. coli strain using a standard electroporation protocol. 3 transformant colonies for each of the 3 kinetically characterized mgDNA clones per inhibitor were chosen for a repeat of the inhibitor tolerance kinetic growth analysis (see above). All of the retransformed fosmids for 4-methylcatechol and 2-furoic acid and 2 of the 3 retransformed fosmids for syringaldehyde recapitulated the improved inhibitor tolerance compared to the E. coli control seen for the original mgDNA selected clones. […] Kinetic growth plots for the mgDNA clone with the best improvements in biomass yield at these concentrations per inhibitor are shown in FIG. 4, over a range of inhibitor concentrations. These selected clones were from mgDNA library 3 for 2-furoic acid (mgFurAc), library 4 for syringaldehyde (mgSyrAld), and library 3 for 4-methylcatechol (mgMetCat).

[3] = system: oral and gut human-associated microbiome isolates; assay: Antibiotic resistance profiling of human-associated microbiome isolates; format: cell-based, bacteria isolated from human sputum and fecal samples; conditions: for Microbiome isolates resistant, on average: 1102 oral and gut isolates, antibiotic 20 mg/L in LB
Experimental: Three sputum samples (oral microbiomes) and two fecal samples (gut microbiomes) were collected from three healthy volunteers at three different sampling times (day 1, 140 and 141), and fresh samples were plated on Luria broth (LB) agar. […]. Cultures were incubated for 16 hours at 37° C. and growth was assayed by absorption at 600 nm.

Row | SMILES | Inhibitory Concentration (E. coli [1]) [g/L] | further results
1 | O=C(O)c1ccco1 [2-Furoic acid] | 0.80 | Improvement in biomass yield due to selected metagenomic insert (E. coli [2]): 6.9 fold; Inhibitor concentration resulting in 90% reduction in growth yield (E. coli [2]): 1.05 g/L
2 | O=C(O)c1ccc(O)cc1 [4-hydrobenzoic acid] | 7.90 | 
3 | O=Cc1ccc(O)cc1 [4-hydroxy-benzaldhehyde] | 1.25 | 
4 | CC(=O)O [Acetic Acid] | 5.00 | 
5 | CCO [Ethanol] | 55.00 | 
6 | O=CO [Formic acid] | 1.15 | 
7 | O=Cc1ccco1 [Furfural] | 2.95 | 
8 | Oc1ccc(O)cc1 [Hydroquinone] | 1.85 | 
9 | CC(=O)CCC(=O)O [Levulinic acid] | 3.00 | 
10 | Cc1ccc(O)c(O)c1 [Methylcatechol, 4-methylcatechol] | 0.20 | Improvement in biomass yield due to selected metagenomic insert (E. coli [2]): 6.0 fold; Inhibitor concentration resulting in 90% reduction in growth yield (E. coli [2]): 0.33 g/L
11 | COc1cc(C=O)cc(OC)c1O [Syringaldehyde] | 1.55 | Improvement in biomass yield due to selected metagenomic insert (E. coli [2]): 5.7 fold; Inhibitor concentration resulting in 90% reduction in growth yield (E. coli [2]): 1.33 g/L
12 | COc1cc(C(=O)O)cc(OC)c1O [Syringic acid] | 9.55 | 
13 | COc1cc(C(=O)O)ccc1O [Vanillic acid] | 8.08 | 
14 | COc1cc(C=O)ccc1O [Vanillin] | 1.50 | 
15 | CC1(C)S[C@@H]2[C@H](NC(=O)C(C(=O)O)c3ccccc3)C(=O)N2[C@H]1C(=O)O (some centres unmarked) [carbenicillin] |  | Microbiome isolates resistant, on average [3]: 39%
16 | O=C(N[C@H](CO)[C@H](O)c1ccc([N+](=O)[O-])cc1)C(Cl)Cl [chloramphenicol] |  | Microbiome isolates resistant, on average [3]: 7%; Susceptibility of gut microbiome isolates ([3]; gut isolates from all sampling times, 20 mg/L): almost completely susceptible; O3 day 1 isolates resistant ([3]; oral microbiome O3, day 1, 20 mg/L): 87%
17 | O=C(O)c1cn(C2CC2)c2cc(N3CCNCC3)c(F)cc2c1=O [ciprofloxacin] |  | Microbiome isolates resistant, on average [3]: 26%
18 | C[C@H]1COc2c(N3CCN(C)CC3)c(F)cc3c(=O)c(C(=O)O)cn1c23 [levofloxacin] |  | Microbiome isolates resistant, on average [3]: 22%
